IC50 data for 29 compounds are collected here from patent US9006426B2, “Squaric acid derivatives as inhibitors of the nicotinamide” (Topotarget A/S, priority 2008, dated 2015).

SMILES strings stand for the structures. Counter-ions that a name gives are not always drawn.

For the experiment, the system named is A2780 cells. Nature of the experiment: In vitro cell proliferation assay (WST-1 assay). The class given is cell-based. The note with it: Homo sapiens, total incubation time 72 h, WST-1 reagent. The procedure:
In Vitro Cell Proliferation Assay (WST-1 Assay)
A2780 cells were seeded in 96-well plates at 3×10^3 cells/well in 100 μL of culture medium, 8 wells were left empty for media only controls.
After 24 h the compound titrations were performed, in a separate dilution plate, by serially diluting the compounds of general formula (I) in culture medium. A 100 μL of each dilution was added to the plated cells, this was done in triplicate, and controls (e.g. DMSO and blanks) were included. The plates were incubated for 24 h at 37° C. in a CO2 incubator. The compound titrations were repeated in a separate dilution plate after 24 h. The media plus compound from the assay plates were then aspirated. A 100 μL of media was then added to all wells, followed by 100 μL of each compound dilution. The plates were incubated for a further 48 h at 37° C. in a CO2 incubator (total incubation time 72 h). The number of viable cells was then assessed using Cell Proliferation Reagent WST-1. 10 μL of WST-1 reagent added to each well and incubated for one to four hours at 37° C. in CO2 incubator. The absorbance was measured (450 nm/690 nm).
The activity of compounds of general formula (I) in reducing the number of viable cells was calculated as: % activity=[(S^c−B)/(S^o−B)]×100
S^c denotes signal measured in the presence of test compound, S^o denotes signal detected in the absence of compound, and B denotes background signal, measured in blank wells containing medium only. Analyse data using GraphPad Prism.
Results can be seen in Table 1, wherein IC50 is the concentration giving 50% activity.

Turning to `O=C(CCCCCCNc1c(Nc2ccncc2)c(=O)c1=O)N(OCCN1CCOCC1)C1CCCCC1` [Compound 1007, N-cyclohexyl-7-(3,4-dioxo-2-(pyridin-4-ylamino)cyclobut-1-enylamino)-N-(2-morpholinoethoxy)heptanamide], it took 0.03 nM to reach half-maximal inhibition (IC50).
The compound `COCCOCCOCCN(OCCC1CCCCC1)S(=O)(=O)CCCCCCNc1c(Nc2ccncc2)c(=O)c1=O` [Compound 1008, N-(2-cyclohexylethoxy)-6-(3,4-dioxo-2-(pyridin-4-ylamino)cyclobut-1-enylamino)-N-(2-(2-(2-methoxyethoxy)ethoxy)ethyl)hexane-1-sulfonamide] displayed an IC50 of 0.48 nM.
`O=c1c(NCCCCCCS(=O)(=O)N(CCN2CCOCC2)OCCC2CCCCC2)c(Nc2ccncc2)c1=O` [Compound 1009, N-(2-cyclohexylethoxy)-6-(3,4-dioxo-2-(pyridin-4-ylamino)cyclobut-1-enylamino)-N-(2-morpholinoethyl)hexane-1-sulfonamide] came in with an IC50 of 0.43 nM.
Next, `O=c1c(NCCCCCCS(=O)(=O)N(Cc2ccccc2)OCCC2CCCCC2)c(Nc2ccncc2)c1=O` [Compound 1010, N-benzyl-N-(2-cyclohexylethoxy)-6-(3,4-dioxo-2-(pyridin-4-ylamino)cyclobut-1-enylamino)hexane-1-sulfonamide]: 0.93 nM; `CN(OCCC1CCCCC1)S(=O)(=O)CCCCCCNc1c(Nc2ccncc2)c(=O)c1=O` [Compound 1011, N-(2-cyclohexylethoxy)-6-(3,4-dioxo-2-(pyridin-4-ylamino)cyclobut-1-enylamino)-N-methylhexane-1-sulfonamide]: 0.085 nM; `O=C(CCCCCCNc1c(Nc2ccncc2)c(=O)c1=O)N(Cc1ccccc1)OCCN1CCOCC1` [Compound 1016, N-benzyl-7-(3,4-dioxo-2-(pyridin-4-ylamino)cyclobut-1-enylamino)-N-(2-morpholinoethoxy)heptanamide]: 0.56 nM.
In the case of `O=C(CCCCCCCNc1c(Nc2ccncc2)c(=O)c1=O)N(Cc1ccccc1)OCCN1CCOCC1` [Compound 1018, N-benzyl-8-(3,4-dioxo-2-(pyridin-4-ylamino)cyclobut-1-enylamino)-N-(2-morpholinoethoxy)octanamide], inhibition was half-maximal at 0.26 nM (IC50).
`O=c1c(NCCCCCCS(=O)(=O)N(CCCN2CCOCC2)CCN2CCOCC2)c(Nc2ccncc2)c1=O` [Compound 1019, 6-(3,4-dioxo-2-(pyridin-4-ylamino)cyclobut-1-enylamino)-N-(2-morpholinoethyl)-N-(3-morpholinopropyl)hexane-1-sulfonamide] came in with an IC50 of 26 nM.
In turn, `O=c1c(NCCCCCCS(=O)(=O)N(CCN2CCOCC2)C2CCCCCC2)c(Nc2ccncc2)c1=O` [Compound 1021, N-cycloheptyl-6-(3,4-dioxo-2-(pyridin-4-ylamino)cyclobut-1-enylamino)-N-(2-morpholinoethyl)hexane-1-sulfonamide] displayed a half-maximal inhibitory concentration (IC50) of 0.25 nM.
Turning to `O=C(OCCCCCNc1c(Nc2ccncc2)c(=O)c1=O)N(OCCN1CCOCC1)C1CCCCC1` [Compound 1026, 5-(3,4-dioxo-2-(pyridin-4-ylamino)cyclobut-1-enylamino)pentyl cyclohexyl(2-morpholinoethoxy)carbamate], half-maximal inhibition (IC50) required 0.6 nM.
The value for `CN(C1CCCCCC1)S(=O)(=O)CCCCCCNc1c(Nc2ccncc2)c(=O)c1=O` [Compound 1027, N-cycloheptyl-6-(3,4-dioxo-2-(pyridin-4-ylamino)cyclobut-1-enylamino)-N-methylhexane-1-sulfonamide] was 0.08 nM; that for `O=c1c(NCCCCCCS(=O)(=O)N2CCCCCC2)c(Nc2ccncc2)c1=O` [Compound 1030, 3-(6-(azepan-1-ylsulfonyl)hexylamino)-4-(pyridin-4-ylamino)cyclobut-3-ene-1,2-dione] was 0.53 nM; that for `O=c1c(NCCCCCCS(=O)(=O)N2CCOCC2)c(Nc2ccncc2)c1=O` [Compound 1031, 3-(6-(morpholinosulfonyl)hexylamino)-4-(pyridin-4-ylamino)cyclobut-3-ene-1,2-dione] was 41.3 nM.
Take `O=C(CCCCCCNc1c(Nc2cccnc2)c(=O)c1=O)N(OCCN1CCOCC1)C1CCCCC1` [Compound 1033, N-cyclohexyl-7-(3,4-dioxo-2-(pyridin-3-ylamino)cyclobut-1-enylamino)-N-(morpholinoethoxy)heptanamide]: the IC50 was determined as 0.6 nM.
`O=C(NCCCCCNc1c(Nc2ccncc2)c(=O)c1=O)N(OCCN1CCOCC1)C1CCCCC1` [Compound 1039, 1-cyclohexyl-3-(5-(3,4-dioxo-2-(pyridin-4-ylamino)cyclobut-1-enylamino)pentyl)-1-(2-morphinethoxy)urea] gave an IC50 of 4.49 nM.
For the compound `CC(C)N(OCCN1CCOCC1)S(=O)(=O)CCCCCCNc1c(Nc2ccncc2)c(=O)c1=O` [Compound 1047, 6-(3,4-dioxo-2-(pyridin-4-ylamino)cyclobut-1-enylamino)-N-isopropyl-N-(2-morpholinoethoxy)hexane-1-sulfonamide], the IC50 amounted to 0.12 nM.
As for `O=c1c(NCCCCCCS(=O)(=O)N(CCCN2CCOCC2)C2CCCCC2)c(Nc2ccncc2)c1=O` [Compound 1050, N-Cyclohexyl-6-(3,4-dioxo-2-(pyridin-4-ylamino)cyclobut-1-enylamino)-N-(3-morpholinopropyl)hexane-1-sulfonamide], half-maximal inhibition (IC50) was put at 1.19 nM.
The value for `O=c1c(NCCCCCCS(=O)(=O)N(OCCN2CCOCC2)C2CCCCC2)c(Nc2ccncc2)c1=O` [Compound 1051, N-Cyclohexyl-6-(3,4-dioxo-2-(pyridin-4-ylamino)cyclobut-1-enylamino)-N-(2-morpholinoethoxy)hexane-1-sulfonamide oxalate] was 0.45 nM; that for `O=c1c(NCCCCCCCS(=O)(=O)N(OCCN2CCOCC2)C2CCCCC2)c(Nc2ccncc2)c1=O` [Compound 1052, N-Cyclohexyl-7-(3,4-dioxo-2-(pyridin-4-ylamino)cyclobut-1-enylamino)-N-(2-morpholinoethoxy)heptane-1-sulfonamide] was 0.3 nM.
The value for `O=c1c(NCCCCCS(=O)(=O)N(OCCN2CCOCC2)C2CCCCC2)c(Nc2ccncc2)c1=O` [Compound 1053, N-Cyclohexyl-5-(3,4-dioxo-2-(pyridin-4-ylamino)cyclobut-1-enylamino)-N-(2-morpholinoethoxy)pentane-1-sulfonamide] was 0.5 nM; that for `O=c1c(NCCCCCCS(=O)(=O)N(OCCN2CCOCC2)C2CCCC2)c(Nc2ccncc2)c1=O` [Compound 1058, N-cyclopentyl-6-(3,4-dioxo-2-(pyridin-4-ylamino)cyclobut-1-enylamino)-N-(2-morpholinoethoxy)hexane-1-sulfonamide] was 0.75 nM.
In turn, `O=c1c(NCCCCCCS(=O)(=O)N(OCCN2CCOCC2)C2CCCCCC2)c(Nc2ccncc2)c1=O` [Compound 1060, N-cycloheptyl-6-(3,4-dioxo-2-(pyridin-4-ylamino)cyclobut-1-enylamino)-N-(2-morpholinoethoxy)hexane-1-sulfonamide] showed an IC50 of 0.69 nM.
Compound `O=c1c(NCCCCCCS(=O)(=O)N(CCCN2CCOCC2)C2CCC2)c(Nc2ccncc2)c1=O` [Compound 1062, N-cyclobutyl-6-(3,4-dioxo-2-(pyridin-4-ylamino)cyclobut-1-enylamino)-N-(3-morpholinopropyl)hexane-1-sulfonamide] yielded an IC50 of 0.42 nM.
Consider `O=c1c(NCCCCCCS(=O)(=O)N(CCN2CCOCC2)C2CCCCC2)c(Nc2ccncc2)c1=O` [Compound 1067, N-cyclohexyl-6-(3,4-dioxo-2-(pyridin-4-ylamino)cyclobut-1-enylamino)-N-(2-morpholinoethyl)hexane-1-sulfonamide], for which the midpoint of inhibition, the IC50, lay at 1.13 nM.
Next, `CCOP(=O)(CCCCCCNc1c(Nc2ccncc2)c(=O)c1=O)NC1CCCCC1` (centres unmarked) [Compound 1068, Ethyl N-cyclohexyl-P-(6-(3,4-dioxo-2-(pyridin-4-ylamino)cyclobut-1-enylamino)hexyl)phosphonimidate]: 0.18 nM; `CN(OCc1ccccc1)S(=O)(=O)CCCCCCNc1c(Nc2ccncc2)c(=O)c1=O` [Compound 1076, N-(benzyloxy)-6-(3,4-dioxo-2-(pyridin-4-ylamino)cyclobut-1-enylamino)-N-methylhexane-1-sulfonamide]: 0.25 nM; `O=c1c(NCCCCCCS(=O)(=O)N(CCN2CCOCC2)OCc2ccccc2)c(Nc2ccncc2)c1=O` [Compound 1077, N-(benzyloxy)-6-(3,4-dioxo-2-(pyridin-4-ylamino)cyclobut-1-enylamino)-N-(2-morpholinoethyl)hexane-1-sulfonamide]: 0.066 nM.
In turn, `O=c1c(NCCCCCS(=O)(=O)N(OCCN2CCOCC2)C2CCCC2)c(Nc2ccncc2)c1=O` [Compound 1078, N-cyclopentyl-6-(3,4-dioxo-2-(pyridin-4-ylamino)cyclobut-1-enylamino)-N-(2-morpholinoethoxy)pentane-1-sulfonamide] registered an IC50 of 0.42 nM.
Next, `O=c1c(NCCCCCCS(=O)(=O)N(CCN2CCOCC2)c2ccc(Cl)cc2)c(Nc2ccncc2)c1=O` [Compound 1080, N-(4-chlorophenyl)-6-(3,4-dioxo-2-(pyridin-4-ylamino)cyclobut-1-enylamino)-N-(2-morpholinoethyl)hexane-1-sulfonamide]: 0.66 nM.
